ChEMBL document CHEMBL3745630, “Cloning, characterization and anion inhibition studies of a γ-carbonic anhydrase from the Antarctic bacterium Colwellia psychrerythraea” (Bioorg Med Chem, 2016)

Experiment: Inhibition of Colwellia psychrerythraea gamma carbonic anhydrase expressed in Escherichia coli incubated for 15 mins prior to testing by stopped flow CO2 hydration method

N=C=S [SODIUM ISOTHIOCYANATE]
Ki: 3.3 mM

NS(N)(=O)=O [SULFAMIDE]
Ki: 0.008 mM

O=S([O-])O.[Na+] [SODIUM BISULFITE]
Ki: 37.5 mM

N=C=[Se] [SODIUM ISOSELENOCYANATE]
Ki: 6 mM

O=BOB(O)OB(O)OB=O [SODIUM TETRABORATE]
Ki: 4.7 mM

O=S(=O)([O-])[O-].[Na+].[Na+] [SODIUM SULFATE ANHYDROUS]
Ki: 9.4 mM

[N-]=[N+]=[N-] [SODIUM AZIDE]
Ki: > 100 mM

NS(=O)(=O)O [SULFAMATE]
Ki: 0.037 mM

[Cl-].[Na+] [SODIUM CHLORIDE]
Ki: 9 mM

S=C(S)S [SODIUM CARBONOTRITHIOATE]
Ki: 3.8 mM

F[B-](F)(F)F.[Na+] [SODIUM TETRAFLUOROBORATE]
Ki: > 100 mM

O=[N+]([O-])[O-].[Na+] [SODIUM NITRATE]
Ki: 21.7 mM

[I-].[Na+] [SODIUM IODIDE]
Ki: 8.7 mM

CCN(CC)C(=S)S [DITIOCARB SODIUM]
Ki: 0.58 mM

O=[Te](=O)(O)O [SODIUM TELLURATE]
Ki: 5.1 mM

[F-].[Na+] [SODIUM FLUORIDE]
Ki: > 100 mM

[Br-].[Na+] [SODIUM BROMIDE]
Ki: > 100 mM

N#CO [SODIUM CYANATE]
Ki: 2.5 mM

F[P-](F)(F)(F)(F)F.[Na+]
Ki: 5.6 mM

O=NO [SODIUM NITRITE]
Ki: 8.8 mM

S [SODIUM HYDROSULFIDE]
Ki: 4.8 mM

O=[Se](=O)(O)O [SODIUM SELENATE]
Ki: 8.3 mM

O=[As](O)(O)c1ccccc1 [PHENYLARSONIC ACID]
Ki: 0.038 mM

[O-][Cl+3]([O-])([O-])O [SODIUM PERCHLORATE]
Ki: > 100 mM

O=C([O-])O.[Na+] [SODIUM BICARBONATE]
Ki: 1.7 mM

O=C([O-])[O-].[Na+].[Na+] [SODIUM CARBONATE]
Ki: 1.4 mM

O=S(=O)(O)OOS(=O)(=O)O [SODIUM PERSULFATE]
Ki: 4.5 mM

OB(O)c1ccccc1 [PHENYLBORONIC ACID]
Ki: 0.026 mM
